In publication doi:10.1101/2024.01.18.576231v1 (biorxiv, 2024) one finds EC50 and Kd data, which are given here for eight compounds.

Holding throughout (assay type): binding
In experiment [1] the target is T1, CRBN_ΔHBD (Homo sapiens, UniProt Q96SW2, INS193GNGNSG/DEL194-248). Kind of experiment: fluorescence polarization, displacement of Cy5-thalidomide. The note with it: […] Cy5-thalidomide tracer, pH […].
The target in experiment [2] is T1, CRBN_ΔHBD. Kind of experiment: fluorescence polarization, direct titration. Conditions: labelled compound; […] tracer, pH […], RT.
A further experiment addresses CRBN_TBD (Homo sapiens, UniProt Q96SW2). The experiment can be described thus: fluorescence polarization, direct titration. The note with it: labelled compound; […] tracer, pH […], RT.
For a further experiment, the target named is CRBN:DDB1 complex (Homo sapiens, UniProt Q96SW2). The experiment can be described thus: fluorescence polarization, direct titration. The note with it: labelled compound; […] tracer, pH […], RT.

The compound `COc1cccc2c1CN(C1CCC(=O)NC1=O)C2=O` (stereo not shown) [Z2508929002] showed a concentration for a half-maximal effect (EC50) on CRBN_ΔHBD [1] of 223 nM. Take `Nc1c(O)ccc2c1C(=O)N(C1CCC(=O)NC1=O)C2=O` (stereo not shown) [Z3269026162]: the half-maximal effective concentration (EC50) at CRBN_ΔHBD [1] was 187 nM. Same read-out and setting: in the case of `O=C1CCC(N2Cc3c(C=C4CCOC4)cccc3C2=O)C(=O)N1` (stereo not shown) [Z4223332422] it was 193 nM; in that of `NC(=O)N1CCC(C#Cc2cccc3c2CN(C2CCC(=O)NC2=O)C3=O)CC1` (stereo not shown) [Z4999915373], 218 nM; in that of `Cc1nn(CCO)cc1CNc1ccc2c(c1)CN(C1CCC(=O)NC1=O)C2=O` (stereo not shown) [Z5000207375], 257 nM. For the compound `COc1nccnc1CNc1ccc2c(c1)CN(C1CCC(=O)NC1=O)C2=O` (stereo not shown) [Z5000208878], on CRBN_ΔHBD [1], the midpoint of the response, the EC50, lay at 197 nM.

At CRBN_ΔHBD [1], `COc1cc(N)cnc1-c1ccc2c(c1)CN(C1CCC(=O)NC1=O)C2=O` (stereo not shown) [Z5000467358] returned an EC50 of 151 nM. As for Cy5-conjugated thalidomide, the Kd at CRBN_ΔHBD [2] is 13 nM; on CRBN_TBD, 5000 nM; on CRBN:DDB1 complex, 4.1 nM.
